What was measured:
[1] = system: Pseudomonas aeruginosa PAO1 fabI mutant biofilms; assay: MBEC biofilm killing assay (BacTiter-Glo), fabI mutants; format: cell-based; details: triclosan 100 μM alone; 6 hours treatment
Description: (§1) The MBEC™ Assay is a high throughput screening assay that allows testing of the efficacy of antimicrobials against biofilms. The MBEC™ Assay's Biofilm Inoculator (referred above as “the lid”) consists of a plastic lid with 96 pegs and a corresponding base with 96 individual wells. Biofilms are grown on the pegs under batch conditions (no flow of nutrients into or out of an individual well) with gentle mixing. The established biofilm is then transferred to a new 96 well plate for antimicrobial efficacy testing. The assay design allows for the evaluation of different of microorganisms, simultaneous testing of multiple biocides at multiple concentrations with replicate samples, making it an efficient screening tool. (Innovotech website http://www.innovotech.ca/products_mbec.php)) […]
(§2) Two milliliter overnight cultures of Pseudomonas aeruginosa fabI mutants were grown in MHII medium shaking at 220 rpm at 37° C. […] Cell culture was diluted to a 0.001 absorbance at 600 nm in 10% Mueller-Hinton II medium (MHII) and used to inoculate the bottom of MBEC™ assay plates (Innovotech, Edmonton, Canada). […] Following a 5 minute rinse in MHII, lids were exposed to BacTiter-Glo™ (Promega) and luminescence read in a microtiter plate reader (EnVision® Multilabel Plate Reader, Perkin Elmer, Waltham, USA). […]

[2] = system: 509=PAO1_Δ(mexAB-oprM)_Δ(mexCD-oprJ)_Δ(mexEF-oprN)_Δ(mexJK)_Δ(mexXY) mutant biofilms; assay: MBEC biofilm killing assay (BacTiter-Glo), efflux pump deletion mutant 509; format: cell-based, Pseudomonas aeruginosa; details: triclosan 100 μM alone or with tobramycin 250 μg/mL; 6 hours treatment
Description: as §1
as §2, with “aeruginosa” for “aeruginosa fabI”

[3] = system: 509.5=PAO509 expressing triABC mutant biofilms; assay: MBEC biofilm killing assay (BacTiter-Glo), mutant 509.5; format: cell-based, Pseudomonas aeruginosa; details: triclosan 100 μM alone or with tobramycin 250 μg/mL; 6 hours treatment
Description: as §1
as §2, with “aeruginosa” for “aeruginosa fabI”

In the case of `Oc1cc(Cl)ccc1Oc1ccc(Cl)cc1Cl` [triclosan, Triclosan], the “susceptibility of fabI mutant biofilms” value [1] is reported as “triclosan resistance”, the “susceptibility of 509 mutant biofilms” value [2] is reported as “susceptible” and the “percentage of 509.5 mutant biofilms killed” value [3] is reported as “around 50%”.
